The text below walks through data of US5783597A, “2,5-disubstituted thiophenes: inhibitors of 5-lipoxygenase and inducible cyclooxygenase (COX-2) enzymes, composition and use” (Ortho Pharmaceutical Corporation, priority 1997, dated 1998).

Test [1] deals with LTB4 production. The test can be described thus: Ex vivo LTB4 production in peripheral (whole) blood of beagle dogs after oral dosing (Procedure IV). The procedure: (§1) Sterile perforated teflon chambers (wiffle golf balls) were surgically implanted subcutaneously in the dorsal neck fold of beagle dogs (8-13 kg, mixed sex). After a recovery period of 1 month, a 1 ml sample of fluid exudate from each dog was aspirated from within the chamber using a 1 ml syringe and 20 gauge 1 inch needle inserted through one of the perforations in the ball. Immediately after obtaining the sample, 1.5 ml of 0.33% sterile carrageenan lambda (Sigma Chemical Co., St. Louis, Mo.) was injected into the chamber. Dilutions of the baseline samples were made in saline and analyzed for leukocyte count using a Coulter Counter (6.08-50 μm range). The sample was also analyzed for concentrations of PGE2 and LTB4 by adding 200 μl of sample to 1 ml ethanol and centrifuging the precipitate (1,500 X g, 7 min). The supernatant was aspirated and stored at 0° C. until enzyme linked immunosorbant assays (ELISAs) were performed (ELISA Technologies, Lexington, Ky.). Samples were also drawn at 5 and 24 hours post carrageenan challenge and treated in a similar manner. […]
(§2) Drug effects can be evaluated on several important aspects of inflammation using this in-vivo assay. […] Selectivity of a COX inhibitor can be determined by comparing PGE2 inhibition in peripheral blood (COX-1) to that of the inflammatory fluid exudate in the chamber (COX-2).

Test [2] has as its system inflammatory cells (leukocyte influx). The test can be described thus: Carrageenan-induced inflammation in subcutaneous chambers in beagle dogs: cellular (leukocyte) influx (Procedure IV). Particulars: oral. The test is classed as in vivo. The procedure: (§3) Carrageenan-Induced Localized Inflammation In Subcutaneous Chambers Implanted In Beagle Dogs
as §1, with “Ky.).” for “Ky.). Samples were also drawn at 5 and 24 hours post carrageenan challenge and treated in a similar manner.”
as §2

The subject of test [3] is LTB4 levels. Description: Carrageenan-induced inflammation in subcutaneous chambers in beagle dogs: LTB4 levels in fluid exudate (Procedure IV). The test is classed as in vivo. Particulars: oral. The procedure: as §3
as §1, with “Ky.).” for “Ky.). Samples were also drawn at 5 and 24 hours post carrageenan challenge and treated in a similar manner.”
as §2

In the case of `CS(=O)(=O)Nc1ccc(Oc2ccc(F)cc2)s1` [Example 1], the ED50 was 4.4 mg/kg in test [1] (Canis lupus familiaris, 5 h, five hours after oral administration, ex vivo, read-out: inhibition of peripheral LTB4 production, IC50); below 0.01 mg/kg in test [2] (Canis lupus familiaris, Leukocyte, inflammatory chamber exudate, read-out: ED50 for inhibition of cellular influx); below 0.01 mg/kg in test [3] (Canis lupus familiaris, inflammatory chamber exudate, read-out: ED50 for inhibition of fluid LTB4 levels). Besides, in test [1] (at 24 hours following dosing, oral), the “inhibition of LTB4 production in whole blood” value is reported as “No inhibition of LTB4 production in whole blood was detected”. For the same compound, the “inhibition of accumulation of inflammatory cells in the exudate” value in test [2] (inflammatory chambers) was “dose related inhibition”. In addition, the “inhibition of LTB4 levels measured in the fluid” value in test [3] (inflammatory chambers) is on record as “dose related inhibition”.
